The assay relates to mice. The experiment in a line: Neuropharmacological Assay (SmartCube). The assay is classed as in vivo. The conditions noted are these: i.p. 15 min before behavioral test; 3 doses, most efficacious dose(s) presented. An excerpt: Neurosci. […] As reported in Roberds, because psychiatric diseases generally result from disorders of cell-cell communication or circuitry, intact systems are useful in detecting improvement in disease-relevant endpoints. These endpoints are typically behavioral in nature, often requiring human observation and interpretation. To facilitate testing of multiple compounds for behavioral effects relevant to psychiatric disease, PsychoGenics, Inc. (Tarrytown, N.Y., “PGI”) developed SmartCube™, an automated system in which behaviors of compound-treated mice are captured by digital video and analyzed with computer algorithms. […] PGI Analytical Systems uses data from SmartCube™ to compare the behavioral signature of a test compound to a database of behavioral signatures obtained using a large set of diverse reference compounds. (The composition of the database as well as validation of the method is further described in Roberds). In this way, the neuropharmacological effects of a test compound can be predicted by similarity to major classes of compounds, such as antipsychotics, anxiolytics and antidepressants.
The SmartCube™ system produces an activity signature indicating the probability that the activity of the test compound at the administered dose matches a given class of neuropharmacological agents. (See, e.g., Roberds, FIGS. 2 and 3). The test compound is simultaneously compared against multiple classes of agents; thus, a separate probability is generated for each behavioral effect measured (e.g., anxiolytic activity, analgesic activity, etc.). In Table 2 and 2B, these probabilities are reported for each behavioral effect measured as follows:
where LOQ is the limit of quantification.
Provided compounds were dissolved in a mixture of Pharmasolve™ (N-methyl-2-pyrrolidone), polyethylene glycol and propylene glycol, and were injected i.p. 15 min. before the behavioral test. For each compound, injections were administered at 3 different doses. For each behavioral effect measured, results for the most efficacious dose(s) are presented.

Consider `Cl.c1ccc2c3n(nc2c1)CCO[C@@H]3[C@@H]1COCCN1` (racemic) [Compound 45, (+/−)—(S)-3-((R)-3,4-dihydro-1H-[1,4]oxazino[4,3-b]indazol-1-yl)morpholin-4-ium chloride], for which the “AD: ADHD (probability of class match)” value is reported as “+ (LOQ≦ + <5%)”, the “AG: analgesic (probability of class match)” value (“AG: analgesic” below) was “+ (LOQ≦ + <5%)”, the “AX: anxiolytic (probability of class match)” value (shortened to “AX: anxiolytic”) is reported as “+ (LOQ≦ + <5%)” and the “CE: cognitive enhancer (probability of class match)” value (from here on “CE: cognitive enhancer”) was “+ (LOQ≦ + <5%)”. The “DP: anti-depressant (probability of class match)” value (“DP: anti-depressant” for short) is on record as “+ (LOQ≦ + <5%)”, the “HA: hallucinogen (probability of class match)” value (from here on “HA: hallucinogen”) is given as “+ (LOQ≦ + <5%)”, the “MS: mood stabilizer (probability of class match)” value (shortened to “MS: mood stabilizer”) was “+ (LOQ≦ + <5%)” and the “PS: anti-psychotic (probability of class match)” value (shortened to “PS: anti-psychotic”) was “+ (LOQ≦ + <5%)”. For the same molecule, the “SD: sedative hypnotic (probability of class match)” value (from here on “SD: sedative hypnotic”) is recorded as “+ (LOQ≦ + <5%)”, the “UN: uncharacterized CNS activity (probability of class match)” value (“UN: uncharacterized CNS activity” below) is on record as “+ (LOQ≦ + <5%)” and the “XG: anxiogenic (probability of class match)” value (from here on “XG: anxiogenic”) was “+ (LOQ≦ + <5%)”.
Consider `Cl.c1ccc2c3n(nc2c1)CCO[C@H]3[C@@H]1COCCN1` (racemic) [Compound 46, (+/−)—(S)-3-((S)-3,4-dihydro-1H-[1,4]oxazino[4,3-b]indazol-1-yl)morpholin-4-ium chloride], for which the “AD: ADHD (probability of class match)” value is given as “+ (LOQ≦ + <5%)”, the “AG: analgesic” value is “++ (5%≦ ++ <25%)”, the “AX: anxiolytic” value is on record as “++ (5%≦ ++ <25%)” and the “CE: cognitive enhancer” value is “+ (LOQ≦ + <5%)”. For the same molecule, the “DP: anti-depressant” value is “+ (LOQ≦ + <5%)”, the “HA: hallucinogen” value is given as “+ (LOQ≦ + <5%)”, the “MS: mood stabilizer” value is “+ (LOQ≦ + <5%)” and the “PS: anti-psychotic” value is “++ (5%≦ ++ <25%)”. The “SD: sedative hypnotic” value is listed as “++ (5%≦ ++ <25%)”, the “UN: uncharacterized CNS activity” value is recorded as “++ (5%≦ ++ <25%)” and the “XG: anxiogenic” value is “+ (LOQ≦ + <5%)”.
Take `CN1CCOC[C@H]1[C@H]1OCCn2nc3ccccc3c21` (racemic) [Compound 47, (+/−)-(3S,4R)-3-((R)-3,4-dihydro-1H-[1,4]oxazino[4,3-b]indazol-1-yl)-4-methylmorpholin-4-ium chloride]: the “AD: ADHD (probability of class match)” value is “+ (LOQ≦ + <5%)”, the “AG: analgesic” value is on record as “++ (5%≦ ++ <25%)”, the “AX: anxiolytic” value is “++ (5%≦ ++ <25%)” and the “CE: cognitive enhancer” value is “+ (LOQ≦ + <5%)”. For the same molecule, the “DP: anti-depressant” value is on record as “+ (LOQ≦ + <5%)”, the “HA: hallucinogen” value is recorded as “+ (LOQ≦ + <5%)”, the “MS: mood stabilizer” value is recorded as “+ (LOQ≦ + <5%)” and the “PS: anti-psychotic” value is recorded as “+ (LOQ≦ + <5%)”. Besides, the “SD: sedative hypnotic” value was “+ (LOQ≦ + <5%)”, the “UN: uncharacterized CNS activity” value is “+ (LOQ≦ + <5%)” and the “XG: anxiogenic” value is “+ (LOQ≦ + <5%)”.
Take `CN1CCOC[C@H]1[C@@H]1OCCn2nc3ccccc3c21` (racemic) [Compound 48, (+/−)-(3S,4R)-3-((S)-3,4-dihydro-1H-[1,4]oxazino[4,3-b]indazol-1-yl)-4-methylmorpholin-4-ium chloride]: the “AD: ADHD (probability of class match)” value is “+ (LOQ≦ + <5%)”, the “AG: analgesic” value is “+ (LOQ≦ + <5%)”, the “AX: anxiolytic” value is “+ (LOQ≦ + <5%)” and the “CE: cognitive enhancer” value is “+ (LOQ≦ + <5%)”. Besides, the “DP: anti-depressant” value was “+ (LOQ≦ + <5%)”, the “HA: hallucinogen” value was “+ (LOQ≦ + <5%)”, the “MS: mood stabilizer” value is “+ (LOQ≦ + <5%)” and the “PS: anti-psychotic” value was “+ (LOQ≦ + <5%)”. Also, the “SD: sedative hypnotic” value is given as “+ (LOQ≦ + <5%)”, the “UN: uncharacterized CNS activity” value is “+ (LOQ≦ + <5%)” and the “XG: anxiogenic” value is on record as “+ (LOQ≦ + <5%)”.
As to `C[C@@H](N)[C@H]1OCCn2nc3ccccc3c21.Cl` (relative stereo) [Compound 30, (+/−)-rel-(R)-1-((R)-3,4-dihydro-1H-[1,4]oxazino[4,3-b]indazol-1-yl) ethanaminium chloride], the “AD: ADHD (probability of class match)” value was “++ (5%≦ ++ <25%)”, the “AG: analgesic” value is “++ (5%≦ ++ <25%)”, the “AX: anxiolytic” value is “+++ (25%≦ +++ <50%)” and the “CE: cognitive enhancer” value is given as “+ (LOQ≦ + <5%)”. In addition, the “DP: anti-depressant” value is given as “++ (5%≦ ++ <25%)”, the “HA: hallucinogen” value is given as “++ (5%≦ ++ <25%)”, the “MS: mood stabilizer” value is “+ (LOQ≦ + <5%)” and the “PS: anti-psychotic” value is “+ (LOQ≦ + <5%)”. The “SD: sedative hypnotic” value was “+ (LOQ≦ + <5%)”, the “UN: uncharacterized CNS activity” value is reported as “+ (LOQ≦ + <5%)” and the “XG: anxiogenic” value is “+ (LOQ≦ + <5%)”.
Take `CN[C@H](C)[C@H]1OCCn2nc3ccccc3c21.Cl` (relative stereo) [Compound 31, (+/−)-rel-(R)-1-((R)-3,4-dihydro-1H-[1,4]oxazino[4,3-b]indazol-1-yl)-N-methylethanaminium chloride]: the “AD: ADHD (probability of class match)” value was “+ (LOQ≦ + <5%)”, the “AG: analgesic” value is given as “++ (5%≦ ++ <25%)”, the “AX: anxiolytic” value is on record as “+++ (25%≦ +++ <50%)” and the “CE: cognitive enhancer” value is given as “++ (5%≦ ++ <25%)”. Besides, the “DP: anti-depressant” value was “++ (5%≦ ++ <25%)”, the “HA: hallucinogen” value is “+ (LOQ≦ + <5%)”, the “MS: mood stabilizer” value was “+ (LOQ≦ + <5%)” and the “PS: anti-psychotic” value is recorded as “++ (5%≦ ++ <25%)”. The “SD: sedative hypnotic” value is given as “+ (LOQ≦ + <5%)”, the “UN: uncharacterized CNS activity” value was “+++ (25%≦ +++ <50%)” and the “XG: anxiogenic” value is reported as “+ (LOQ≦ + <5%)”.
For the molecule `C[C@H]([C@H]1OCCn2nc3ccccc3c21)N(C)C.Cl` (relative stereo) [Compound 32, (+/−)-rel-(R)-1-((R)-3,4-dihydro-1H-[1,4]oxazino[4,3-b]indazol-1-yl)-N,N-dimethylethanaminium chloride], the “AD: ADHD (probability of class match)” value is “+ (LOQ≦ + <5%)”, the “AG: analgesic” value is listed as “+ (LOQ≦ + <5%)”, the “AX: anxiolytic” value is “++ (5%≦ ++ <25%)” and the “CE: cognitive enhancer” value is “++ (5%≦ ++ <25%)”. Moreover, the “DP: anti-depressant” value is listed as “++ (5%≦ ++ <25%)”, the “HA: hallucinogen” value is recorded as “+ (LOQ≦ + <5%)”, the “MS: mood stabilizer” value was “+ (LOQ≦ + <5%)” and the “PS: anti-psychotic” value is on record as “+++ (25%≦ +++ <50%)”. The “SD: sedative hypnotic” value is reported as “+ (LOQ≦ + <5%)”, the “UN: uncharacterized CNS activity” value was “++ (5%≦ ++ <25%)” and the “XG: anxiogenic” value is reported as “+ (LOQ≦ + <5%)”.

(Values after patent publication US9758529B2, “Fused dihydro-4H-pyrazolo[5,1-C][1,4]oxazinyl compounds and analogs for treating CNS disorders” (Sunovion Pharmaceuticals Inc., priority 2015, dated 2017).)
